{
  "source": "paper PMC10571957",
  "about": "“αV-Integrin-Dependent Inhibition of Glioblastoma Cell Migration, Invasion and Vasculogenic Mimicry by the uPAcyclin Decapeptide” (Cancers, 2023)",
  "key": {"C6 cells": {"tested_on": "C6 cells", "assay": "Cell viability/proliferation (Trypan blue, MTT), C6", "assay_type": "cell-based, rat", "settings": "C6, Trypan blue exclusion and MTT", "description": "(§1) Cell viability was tested in DMEM/10% FBS, in the presence of 1 nM or 100 nM uPAcyclin, either by Trypan blue exclusion or by thiazolyl blue tetrazolium bromide (MTT) assays, as specified in the figure legends. For the Trypan blue assay, 4 × 10^4 U87-MG, U251-MG, U138-MG, and C6 cells/sample were grown in 12-well plates, and followed for 24, 48 and 72 h. As a negative control, the cells were grown in a serum-free medium. Then, the cells were detached, stained with a 0.2% (w/v) Trypan blue solution, counted using a Burker chamber (T0 = 100%), and reported as number of viable cells/total.\n(§2) For the MTT assay, 5 × 10^3 U87-MG and C6 cells/well were grown in 96-well plates for 24 h and tested as previously described. Briefly, MTT (Invitrogen-Life Technologies, Eugene, OR, USA) 5 mg/mL in a PBS solution was added to wells at a 10% final concentration, and incubated for 3 h at 37 °C, followed by the addition of stop solution (100 µL of DMSO/well) for 1 h at room temperature. Then, the optical densities were measured at 495 nm using the Microplate Reader (Synergy HT, Bio-Tek, Winoosky, VT, USA). The cell viability rate was calculated as a percentage by reporting the mean absorbance of treated groups to control groups, as follows: Cell viability rate (%) = (Atreated group/Acontrol group) × 100."}, "[1]": {"tested_on": "cancer-associated fibroblasts (CAFs) from breast cancer patients", "settings": "ref [30]; cited from earlier work", "source_text": "Thus, in the present work, we investigated the effects of the anti-migratory uPAcyclin decapeptide, binding to the αV integrin subunit. This cyclic decapeptide is derived from a non-catalytic region of the human urokinase (uPA) plasminogen activator. The growth factor domain (GFD, residues 1–49) and the connecting peptide region (CP, residues 132–158) confer to the full uPA a clearcut motogen activity. While the GFD binds to the urokinase receptor (uPAR), the CP region binds to the αV integrin subunit."}, "[2]": {"tested_on": "U138-MG cells (αV integrin)", "assay": "FITC-uPAcyclin receptor binding/competition, U138-MG", "design": "species or system human", "settings": "unlabeled uPAcyclin vs FITC-uPAcyclin, 4 °C", "description": "The U87-MG, U251-MG, and U138-MG cell lines were harvested and acid-treated, as described. Then, 2 × 10^6 cells/sample were exposed for 30 min at 4 °C to uPAcyclin or S-uPAcyclin at the indicated concentrations, or with the following antibodies: VNR147 monoclonal anti-αV integrin (Chemicon Int. Inc., Temecula, CA, USA), polyclonal anti-αV (Millipore, Burlington, MA, USA), monoclonal anti-α2 (Chemicon Int. Inc., Temecula, CA, USA), polyclonal anti-actin (Sigma-Aldrich, St. Louis, MO, USA), monoclonal anti-GAPDH (Abcam, Cambridge, UK), and purified vitronectin (VN, Corning, Glendale, AZ, USA). The cells were subsequently incubated with 50 nM FITC-uPAcyclin for 2 h at 4 °C, as described. At the end of incubation, the cells were washed and the cell surface-associated fluorescence was determined using a fluorimeter (VICTOR^TM X3-PerkinElmer, Waltham, MA, USA). All binding assays were performed three times, with duplicate samples, and analyzed as described in Section 2.11.\nFigure 2 αV expression of U87-MG, U251-MG, and U138-MG GBM cells and specific binding of FITC-uPAcyclin. […] At the end of the incubation, the unbound material was washed and cell-associated FITC-uPAcyclin was quantitated by a fluorimeter. The net value of cell-surface-associated fluorescence, corresponding to the specific binding, is shown. […]"}, "U87-MG cells": {"tested_on": "U87-MG cells", "assay": "Cell viability/proliferation (Trypan blue, MTT), U87-MG", "assay_type": "cell-based, human", "settings": "1 nM or 100 nM, 72–96 h", "description": "as §1, §2"}, "U251-MG cells": {"tested_on": "U251-MG cells", "assay": "Cell viability/proliferation (Trypan blue), U251-MG", "assay_type": "cell-based, human", "settings": "1 nM or 100 nM, 72–96 h", "description": "as §1"}},
  "data": [
    {"substance": "Ac-K^1P[ESPPEELK^10]-NH2 (sidechain bridge or staple) [uPAcyclin]", "values": [
      {"measurement": "proliferation/viability", "setting": "C6 cells", "value": "proliferation and viability are not affected by uPAcyclin"},
      {"measurement": "pro-invasive ability of CAFs", "setting": "[1]", "value": "inhibited the pro-invasive ability of cancer-associated fibroblasts"},
      {"measurement": "Kdapp", "setting": "[2]", "value": "low nanomolar range"},
      {"measurement": "proliferation/viability", "setting": "U87-MG cells", "value": "unaffected by uPAcyclin, regardless of the concentration employed"},
      {"measurement": "proliferation/viability", "setting": "U251-MG cells", "value": "unaffected by uPAcyclin, regardless of the concentration employed"}
    ]}
  ]
}
